Measured values as given in patent US11071735B2, “Treatment of inflammatory conditions and autoimmune diseases with glucose uptake inhibitors” (Kadmon Corporation, LLC, priority 2017, dated 2021).

How the values were obtained:
[1] = test system: TNFalpha and MCP-1 levels; assay: LPS/D-galactosamine mouse model, cytokine production; format: in vivo; details: 100 mg/kg p.o.
Experimental: 100 μg LPS and 18 mg D-galactosamine were used to induce cytokine production. […] In FIG. 6, Example 2 is shown to modulate cytokine/chemokine production in response to LPS/D-galactosamine (mouse model of sepsis and liver damage). Example 2 prevents the dramatic increase of TNFalpha (FIG. 6A), a cytokine well-established as a major driver of inflammation. In line with in vitro results, Example 2 abrogates an initial increase in MCP-1 (FIG. 6B), but is unable to statistically suppress MCP1 induction at later time points (not shown). LPS Mouse Model: Performed at Pharmalegacy.

[2] = test system: MOG-induced experimental autoimmune encephalitis; assay: mouse MOG-induced experimental autoimmune encephalitis (EAE) model; format: in vivo; details: compared to vehicle control
From the text: In FIG. 4, Example 2 is shown to have efficacy against an in vivo mouse model of inflammation, MOG-induced experimental autoimmune encephalitis. Example 2 both delays the onset and lowers the end clinical score of inflammation in this model.
Mouse Prophylactic MOG-EAE Model: Performed at Hooke laboratories.

[3] = molecular target: T1, GLUT3 (Homo sapiens, UniProt P11169); assay: glycolysis assay in DLD1 GLUT1−/− cells (rely on GLUT3); format: cell-based; details: DLD1-KO (GLUT1−/−) cells; 10 μM oligomycin, one hour
T1 construct: endogenous in cells; host or cells: DLD1 GLUT1−/− (knock-out) cancer cells
T1 sequence (P11169 1-496): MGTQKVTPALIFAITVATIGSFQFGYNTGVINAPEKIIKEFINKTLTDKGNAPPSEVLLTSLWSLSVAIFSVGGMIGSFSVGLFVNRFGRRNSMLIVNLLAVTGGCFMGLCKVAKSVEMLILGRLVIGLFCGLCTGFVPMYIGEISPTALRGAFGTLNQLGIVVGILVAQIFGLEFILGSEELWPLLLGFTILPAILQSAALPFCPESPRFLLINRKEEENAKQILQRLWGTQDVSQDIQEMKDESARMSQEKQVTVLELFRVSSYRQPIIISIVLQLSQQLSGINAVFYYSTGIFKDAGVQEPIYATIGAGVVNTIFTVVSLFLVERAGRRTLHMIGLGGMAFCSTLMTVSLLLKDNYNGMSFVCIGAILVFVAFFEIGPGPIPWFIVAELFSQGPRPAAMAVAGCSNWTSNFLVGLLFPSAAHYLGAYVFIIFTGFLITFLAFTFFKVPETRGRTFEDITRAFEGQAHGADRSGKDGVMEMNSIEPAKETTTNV
Procedure, shortened: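 Cells […] exposed for 1 h to inhibitor plus 10 μM oligomycin to block mitochondrial ATP; remaining glycolytic ATP read by CellTiter-Glo luminescence. IC50 derived from dose-response curves.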

[4] = test system: MCP-1 secretion; assay: MCP-1 secretion of LPS-treated THP1 monocytes (ELISA); format: cell-based; details: THP1 cells, compound one hour prior to 16 hour 1 μg/ml LPS
Experimental: In FIG. 5A, THP1 cells were activated with 1 μg/ml LPS for 16 hrs prior to a one-hour glycolysis assay (Example 2+Oligomycin). In FIG. 5B, THP1 cells were treated with Example 2 one hour prior to a 16 hour treatment with 1 μg/ml LPS, after which MCP-1 secretion into the media was measured by ELISA (R&D systems) and cell number measured by Cell Titer Glo (Promega).
THP1 Monocyte assay: THP1 monocytic cancer cells were activated with 1 ug/ml LPS (Sigma-Aldrich). The previously described glycolysis assay was performed 16 hrs post-activation. For cytokine secretion, cells were pre-treated for one hour with GLUT inhibitors prior to 16 hours of 1 μg/ml LPS treatment.

[5] = test system: phosphorylation of STAT1 and STAT3; assay: Western blot of STAT1/STAT3 phosphorylation in activated CD4 T cells; format: cell-based, human; details: 1 μM; CD4 T cells activated 48 hrs with IL-1β, TGF-β
Experimental: FIG. 8. […] FIG. 8A. CD4 T cells were activated for 48 hrs in the presence of IL-1β, TGF-β and 1 μM of the Example 2 compound. Western blotting analysis was used to determine the activation status of Stat3, Stat1 and pS6K (as a marker of mTORC1 activity) and the expression of GLUT1 protein. FIG. 8B. CD4 T cells were activated for 48 hrs and treated with the indicated compounds for 1.5 or 4 hrs. Western blotting analysis was used to determine the activation status of Stat3, Stat1 and pS6K (as a marker of mTORC1 activity). GLUT1/3 inhibitors downregulate phosphorylation of STAT1 and STAT3, key signaling molecules in activated T cells. In FIG. 8A. CD4 T cells were activated for 48 hrs in the presence of IL-1β, TGF-β and 1 μM of the Example 2 compound. Western blotting analysis was used to determine the activation status of Stat3, Stat1 and pS6K (as a marker of mTORC1 activity) and the expression of GLUT1 protein. CD4 T cells were activated for 48 hrs and treated with the indicated compounds in FIG. 8B for 1.5 or 4 hrs. […] IL-17 levels were measured by ELISA (R&D systems, Human IL-17 Quantikine ELISA kit). Proliferation was measured by Cell Titer Glo (Promega). Intracellular staining was performed and analyzed using the Guava EasyCyte flow cytometer. […] Protein levels and phosphorylation status were assessed by western blot analysis using antibodies purchased from Cell Signaling.

## CCOc1ccc2nc(-c3cccc(OCC(=O)NC(C)C)c3)nc(Nc3ccc(-c4cn[nH]c4)cc3)c2c1 [Ex. 2, 2-(3-(4-((4-(1H-pyrazol-4-yl)phenyl)amino)-6-ethoxyquinazolin-2-yl)phenoxy)-N-isopropylacetamide]
[1]; 2 hours post LPS/Galn
  increase of MCP-1 levels: unable to prevent a statistically significant increase
[1]; one hour following LPS/Galn
  increase of MCP-1: inhibits the increase
  increase of TNFalpha: inhibits the increase
[2]; 30 mg/kg p.o. daily
  end clinical score: lowered the end clinical score
  onset of EAE: delayed onset
[2]; 100 mg/kg p.o. daily
  end clinical score: lowered the end clinical score
  onset of EAE: delayed onset
[3]
  IC50: 60.9 nM
[4]
  MCP-1 secretion: inhibits cytokine/chemokine secretion
[5]
  phosphorylation of STAT1 and STAT3: downregulate the phosphorylation of STAT1 and STAT3
